Read-outs that look alike come from different tables or passages of the source.
What was measured:
[1] = tested on: osteoarthritic rats (unilateral i.a. MIA injection); test: Hind limb grip force (activity-induced pain) 20 days after i.a. MIA injection; type: in vivo, rat
Experimental: For evaluating the effects of reference analgesic drugs experiments were performed 20 days after induction of OA. Assessment of hind limb grip force was used as a behavioral measure of activity induced pain in adult OA rodents. Measurements of peak hind limb grip force were conducted by recording the maximum compressive force exerted on the hind limb strain gauge setup, in a commercially available grip force measurement system (Columbus Instruments, Columbus, Ohio). A group of age matched naïve animals were added to each experiment and the data obtained from the different dose groups for the compound being tested were compared to the naïve group.
(§1) All experiments have been approved by the Institutional Animal Care and Use Committee (IACUC) at Abbott Laboratories and are in strict accordance with the ethical guidelines laid down by the International Association for the Study of Pain (IASP) (Zimmermann, 1983) for the care and use of laboratory animals. […] Following injection, the animals were allowed to recover from the effects of anesthesia (usually 5-10 mins) before returning to their home cages. […] Animals were euthanized by CO2 inhalation on day 20. The injected knee joints were dissected and immediately fixed in 10% phosphate buffered formalin. The samples were then decalcified in 5% formic acid for 3 days, routinely processed and then embedded in paraffin wax. Frontal histologic sections of the femorotibial joints (6 μm) were prepared, stained with toluidine-blue and examined with a light microscope (Guzman et al., 2003).
(§2) Measurements of peak hind limb grip force were conducted by recording the maximum compressive force exerted on the hind limb strain gauge setup, in a commercially available grip force measurement system (Columbus Instruments, Columbus, Ohio). […] Additional tests were performed 1, 2, 4, 7, 10, 13, 17, 21, 24, and 28 days following the injections.
A group of age matched naïve animals were added to each experiment and the data obtained from the different dose groups for the compound being tested were compared to the naïve group. The vehicle control group for each compound being tested was assigned 0% whereas the naïve group was assigned as being 100% (normal). The % effects for each dose group was then expressed as % return to normalcy compared to the naïve group (=[100÷% increase from vehicle for naive group]×% increase from vehicle for treatment group) (% increase from vehicle=[Treatment CFmax−Vehicle CFmax)/Vehicle CFmax]×100). All experiments evaluating drug effects in this model were conducted in a randomized blinded fashion.

rats = settings: 28 days after unilateral i.a. injection, 3 mg; baseline 1090.17±52.85 g
Experimental: as §1, §2

naïve rats = test: Hind limb grip force in naïve (non-MIA injected) rats
Experimental: as §2

[2] = Rattus norvegicus, po, 480 h; read-out: % effect (% return to normalcy of grip force)
[3] = Rattus norvegicus, po, 480 h; read-out: CI95% of ED50
[4] = Rattus norvegicus, po, 480 h; read-out: ED50, reversal of decreased grip force

## NCC1(CC(=O)O)CCCCC1 [gabapentin]
[1]; Rattus norvegicus, po, 480 h, read-out: % effect (% return to normalcy of grip force)
  inhibition in vivo at 500 µmol/kg: 61 ± 8%
[1]; Rattus norvegicus, po, 480 h, read-out: CI95% of ED50
  ED50: 100 to 295 µmol/kg
[1]; Rattus norvegicus, po, 480 h, read-out: ED50, reversal of decreased grip force
  ED50: 159 µmol/kg

## sodium monoiodoacetate [MIA]
rats
  hind limb grip force (GF): 420.96 ± 25.07 g

## CC(=O)Nc1ccc(O)cc1 [acetaminophen]
[1]; [2]
  inhibition in vivo at 300 µmol/kg: 23 ± 11%

## O=C(O)Cc1ccccc1Nc1c(Cl)cccc1Cl [diclofenac]
[1]; [2]
  inhibition in vivo at 100 µmol/kg: 77 ± 5%
[1]; [3]
  ED50: 22 to 38 µmol/kg
[1]; [4]
  ED50: 29 µmol/kg

## CC(C)Cc1ccc(C(C)C(=O)O)cc1 (stereo not shown) [ibuprofen]
[1]; [2]
  inhibition in vivo at 300 µmol/kg: 29 ± 8%

## Cc1ccc(-c2cc(C(F)(F)F)nn2-c2ccc(S(N)(=O)=O)cc2)cc1 [celecoxib]
[1]; 10 μmol/kg p.o. b.i.d. for 12 days beginning 7 days after MIA
  % effect, chronic dosing: 33±3.0%
[1]; 10 μmol/kg p.o., acute
  % effect, acutely dosed group of chronic study: 9±3%
[1]; 30 μmol/kg p.o. b.i.d. for 12 days beginning 7 days after MIA
  % effect, chronic dosing: 67±3%
[1]; 30 μmol/kg p.o., acute
  % effect, acutely dosed group of chronic study: 42±3%
[1]; 100 μmol/kg p.o., acute
  % effect, acute positive control of chronic study: 88±4%
[1]; [2]
  inhibition in vivo at 100 µmol/kg: 87 ± 6%
[1]; [3]
  ED50: 16 to 42 µmol/kg
[1]; [4]
  ED50: 27 µmol/kg

## COc1ccc2c(c1)c(CC(=O)O)c(C)n2C(=O)c1ccc(Cl)cc1 [indomethacin]
[1]; [2]
  inhibition in vivo at 85 µmol/kg: 44 ± 6%

## CN1CC[C@]23c4c5ccc(O)c4O[C@H]2[C@@H](O)C=C[C@H]3[C@H]1C5 [morphine]
[1]; Rattus norvegicus, sc, 480 h, read-out: % effect (% return to normalcy of grip force)
  inhibition in vivo at 8 µmol/kg: 34 ± 3%
naïve rats; 8 μmol/kg (6 mg/kg) s.c.
  reduction of grip force vs untreated naïve rats: 13±3%
naïve rats; 13 μmol/kg (10 mg/kg) s.c.
  reduction of grip force vs untreated naïve rats: 52±3%

## Nc1nnc(-c2cccc(Cl)c2Cl)c(N)n1 [Lamotrigine, lamotrigine]
[1]; [2]
  inhibition in vivo at 100 µmol/kg: 30 ± 3%

## COc1cccc(C2(O)CCCCC2CN(C)C)c1 (stereo not shown) [tramadol]
[1]; Rattus norvegicus, ip, 480 h, read-out: % effect (% return to normalcy of grip force)
  inhibition in vivo at 100 µmol/kg: 79 ± 5%
[1]; Rattus norvegicus, ip, 480 h, read-out: CI95% of ED50
  ED50: 32 to 54 µmol/kg
[1]; Rattus norvegicus, ip, 480 h, read-out: ED50, reversal of decreased grip force
  ED50: 40 µmol/kg
